Results on 1 substance are retold here after patent publication US7297551B2, “Recombinant proteins and peptides for endotoxin biosensors, endotoxin removal, and anti-microbial and anti-endotoxin therapeutics” (priority 1998, dated 2007).

For assay [1], the target named is T1, SSCrFCES (LPS-binding domain of C. rotundicauda Factor C, rFCES amino acids 29-330, numbered as in SEQ ID NO: 4) (Carcinoscorpius rotundicauda, UniProt Q26422).
T1 construct: rFCES (amino acids 29-330); made in house; host or cells: Drosophila S2 cells
T1 sequence (Q26422 29-330): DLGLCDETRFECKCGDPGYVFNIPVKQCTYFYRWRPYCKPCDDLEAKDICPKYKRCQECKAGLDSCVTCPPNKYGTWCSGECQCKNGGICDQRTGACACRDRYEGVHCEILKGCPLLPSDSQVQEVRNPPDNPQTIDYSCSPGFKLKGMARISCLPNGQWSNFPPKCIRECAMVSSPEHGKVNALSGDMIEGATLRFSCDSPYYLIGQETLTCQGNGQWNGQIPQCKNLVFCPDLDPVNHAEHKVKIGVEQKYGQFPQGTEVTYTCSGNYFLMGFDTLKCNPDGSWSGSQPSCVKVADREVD
The assay is described as follows: Surface plasmon resonance binding to immobilized lipid A. Conditions: 400 ng/100 ul SSCrFCES. Here is the method:
Recognition of lipid A by the abovenamed secreted recombinant proteins and peptides was, performed with a BIAcore X™ biosensor instrument and an HPA sensor chip. Briefly, lipid A at 0.5 mg/ml in PBS was immobilized to a HPA sensor chip (Pharmacia) according to the manufacturer's specification. In all experiments, pyrogen-free PBS was used as the running buffer at a flow rate of 10 μl/min.
With purified SSCrFCES, 4 μg/ml was injected into the flow cell at a rate of 10 μl/min, and the binding response was measured as a function of time. Following injection of SSCrFCES, a solution of INDIA™ HisProbe™-HRP antibody, diluted in PBS to 400 μg/ml, was also injected to cause a shift in SPR in order to further confirm that SSCrFCES binds to lipid A. For regeneration, 100 mM of NaOH solution was injected for 5 minutes. Similar lipid A binding analysis was carried out with SSCrFCsushi-GFP fusion proteins.

Assay [2] deals with T2, rFCSN (truncated C. rotundicauda Factor C, CrFC26SN, lacking the LPS-binding domain, from P. pastoris) (Carcinoscorpius rotundicauda, UniProt Q26423).
T2 construct: Pichia pastoris
T2 sequence (Q26423 1-1083): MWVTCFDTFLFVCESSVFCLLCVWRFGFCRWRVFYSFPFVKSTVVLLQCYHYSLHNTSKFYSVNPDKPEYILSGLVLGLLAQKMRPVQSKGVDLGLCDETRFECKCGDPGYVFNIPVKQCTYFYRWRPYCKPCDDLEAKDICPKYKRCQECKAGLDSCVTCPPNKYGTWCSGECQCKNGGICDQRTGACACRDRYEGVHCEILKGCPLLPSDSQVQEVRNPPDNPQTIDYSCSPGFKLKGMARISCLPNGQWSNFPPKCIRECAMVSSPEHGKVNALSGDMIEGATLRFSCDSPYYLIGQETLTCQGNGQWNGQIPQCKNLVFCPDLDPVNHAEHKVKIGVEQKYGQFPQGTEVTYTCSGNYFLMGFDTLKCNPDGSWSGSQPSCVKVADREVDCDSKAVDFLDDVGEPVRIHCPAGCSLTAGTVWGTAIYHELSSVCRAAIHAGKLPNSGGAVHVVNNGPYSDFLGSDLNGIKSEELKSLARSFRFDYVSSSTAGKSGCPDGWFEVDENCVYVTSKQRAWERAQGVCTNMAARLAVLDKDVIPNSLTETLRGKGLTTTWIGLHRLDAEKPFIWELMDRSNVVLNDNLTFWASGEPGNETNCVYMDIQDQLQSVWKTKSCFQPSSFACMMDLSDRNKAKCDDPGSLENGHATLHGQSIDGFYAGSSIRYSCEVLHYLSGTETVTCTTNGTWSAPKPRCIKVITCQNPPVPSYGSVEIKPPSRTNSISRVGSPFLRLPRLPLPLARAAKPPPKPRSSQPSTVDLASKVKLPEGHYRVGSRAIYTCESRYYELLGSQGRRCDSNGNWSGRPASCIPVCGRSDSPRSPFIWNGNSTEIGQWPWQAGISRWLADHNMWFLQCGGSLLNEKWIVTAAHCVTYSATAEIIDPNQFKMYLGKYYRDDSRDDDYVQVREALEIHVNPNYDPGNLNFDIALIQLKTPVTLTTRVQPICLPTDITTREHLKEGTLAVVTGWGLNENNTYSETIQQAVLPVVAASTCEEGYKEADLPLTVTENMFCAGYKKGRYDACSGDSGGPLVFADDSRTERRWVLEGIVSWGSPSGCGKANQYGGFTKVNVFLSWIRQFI
Kind of assay: Modified Western blot of LPS/lipid A. The procedure:
LPS from E. coli 055:B5 (Sigma) was reconstituted to 2 μg/μl, and diphosphoryl lipid A from E. coli K12, D31m4 LPS (List Biologicals, Inc., USA) was made up to 1 μg/μl. The LPS-binding assay was based on modifications of earlier described protocols (45,61). Briefly, 10 μg aliquots of LPS/lipid A were electrophoresed on a denaturing 15% SDS-polyacrylamide gel and electroblotted onto Immobilon™ PVDF membrane. The membrane was cut into strips and each LPS/lipid A strip was subsequently incubated with 300 μg of proteins containing rFC. Detection of rFC binding to lipid A was accomplished by incubation with anti-Factor C antibody followed by alkaline phosphatase-conjugated secondary goat anti-rabbit antibody (Dako) and BCIP/NBT colorimetric substrate (Moss, Inc., USA).
For orientation: A western blot detects proteins with antibodies after separation by electrophoresis.

Assay [3] has as its target T1, SSCrFCES (LPS-binding domain of C. rotundicauda Factor C, rFCES amino acids 29-330, numbered as in SEQ ID NO: 4). Kind of assay: ELISA-based lipid A binding assay. Here is the method: A Polysorp™ 96-well plate (Nunc) was first coated with 100 μl per well of various concentrations of lipid A diluted in pyrogen-free PBS. The plate was sealed and allowed to incubate overnight at room temperature. The wells were aspirated and washed 6 times with 200 μl per wash solution (PBS containing 0.01% Tween-20 and 0.01% thimerosal). Blocking of unoccupied sites was achieved using wash solution containing 0.2% BSA for 1 hour at room temperature. Subsequently, blocking solution was removed and the wells washed as described above. Varying concentrations of SSCrFCES were allowed to interact with bound lipid A at room temperature for 2 hours.
Bound SSCrFCES was detected by sequential incubation with rabbit anti-SSCrFCES antibody (1:1000 dilution) and goat anti-rabbit antibody conjugated with HRP (1:2000 dilution) (Dako). Incubation with each antibody was for 1 h at 37° C. with washing between incubations as described above. In the final step, 100 μl of peroxide substrate ABTS (Boehringer Mannheim) was added. Using a microtiter plate reader, the absorbance of the samples was determined at 405 nm with reference wavelength at 490 nm. The values were correlated to the amount of LPS bound and SSCrFCES present. Quantitation of SSCrFCES was achieved from a standard curve derived by immobilizing known amount of purified SSCrFCES onto a Maxisorp plate.
In general terms: An ELISA detects its analyte on a solid surface through an enzyme-linked reagent.

As for lipid A, the “saturation of lipid A” value in assay [1] was found to be 92%. Besides, the “binding to the 7-20 kDa lipid A bands” value in assay [2] is “No binding”. For the same substance, in assay [3], the “Hill's coefficient” value was found to be 2.2 and the “molar ratio of bound SSCrFCES to immobilized lipid A at saturation” value was determined as 0.37. For the same substance, the “stoichiometry, lipid A molecules per SSCrFCES” value in assay [3] (at saturation) is approximately 3.
